Experimental data from patent US20050090522A1 (priority 2001, published 2005).
Read-outs that look alike come from different tables or passages of the source.

Key:
[1] = Metabolic stability in pooled human liver microsomes (HLM); conditions: pooled human liver microsomes, 3 μM drug; Low/Intermediate/High
How it was run: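 Pooled human liver microsomes (0.9 mg/ml final) in 0.1 M potassium phosphate pH 7.4 with 0.033 mM MgCl2 and an NADPH-regenerating system. Compound pre-incubated 2 min, reaction started with cofactors, run 10 min at 37° C, quenched in acetonitrile and analysed by LC/MS.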

[2] = test system: HIV-1; test: HIV-1 single-round infectious luciferase reporter virus (pseudotype) assay in HeLa CD4 CCR5 cells; format: cell-based
How it was run: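 HeLa CD4 CCR5 cells (5×10^4/well, DMEM + 10% FBS) were treated with compound (final <10 μM) and infected with single-round luciferase reporter virus made in 293 cells, at MOI ~0.01. Luciferase was read 72 h post infection. EC50 came from 10-concentration percent-inhibition curves fitted to a four-parameter logistic model.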

[3] = test system: HeLa cells; test: Cytotoxicity assay in HeLa cells (MTT dye reduction, CC50); conditions: cytotoxicity; Yes = CC50 above 100 uM, No = not
How it was run: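 HeLa cells expressing CD4 and CCR5, grown in DMEM with 10% FBS, were used for cytotoxicity testing by MTT dye reduction; the text gives no further cytotoxicity conditions. The parallel antiviral assay exposed the same cells to compound at final <10 μM for 72 h.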

[4] = Rat IV and PO pharmacokinetic studies; conditions: for clearance / AUC(0-t): male, Sprague-Dawley, in vivo; for clearance: iv, 1 mg/kg, CL; for clearance / CL, iv: iv dosing at 1 mg/kg; for AUC(0-t): po, 5 mg/kg
Description: Rat Pharmacokinetic Studies: For the IV and PO pharmacokinetic studies of compounds in rats, the compound was dissolved in PEG-400/ethanol (90/10) as a solution. Rat. Male Sprague-Dawley rats (300-350 g, Hilltop Lab Animals, Inc., Scottdale, Pa.) with cannulas implanted in the jugular vein were used. The rats were fasted overnight in the PO pharmacokinetic studies. Blood samples of 0.3 ml were collected from the jugular vein in EDTA-containing microtainer tubes (Becton Dickinson, Franklin Lakes, N. J.), and centrifuged to separate plasma. In the IV study, the test compound was delivered at 1 mg/kg as a bolus over 0.5 min (n=3). […] Quantitation of Compounds in Plasma. […] The resulting supernates were separated from the precipitated proteins by centrifugation for 10 minutes and transferred to autosampler vials. Samples were either prepared manually, or with the use of the Tomtec automated liquid handler. An aliquot of 5 μL was injected for analysis. The HPLC system consisted of two Shimadzu LC10AD pumps (Columbia, Md.), a Shimadzu SIL-HTC autosampler (Columbia, Md.), and a Hewlett Packard Series 1100 column compartment (Palo Alto, Calif.). The column was a YMC Pro C18 (2.0×50 mm, 3 μm particles, Waters Co., Milford, Mass.), maintained at 60° C. and a flow rate of 0.3 ml/min. The mobile phase consisted of 10 mM ammonium formate and 0.1% formic acid in water (A) and 100% 10 mM ammonium formate and 0.1% formic acid in methanol (B). […] The mobile phase was then returned to initial conditions and the column re-equilibrated for 1 minute. Total analysis time was 4 minutes. The HPLC was interfaced to a Micromass Quattro LC. Ultra high purity nitrogen was used as the nebulizing and desolvation gas at flow rates of 100 L/hr for nebulization and 1100 L/hr for desolvation. The desolvation temperature was 300° C. and the source temperature was 150° C. Data acquisition utilized selected reaction monitoring (SRM). Ions representing the (M+H)^+ species for the compound and the internal standard were selected in MS 1 and collisionally dissociated with argon at a pressure of 2×10^−3 torr to form specific product ions which were subsequently monitored by MS2.
For accuracy, the determined measure of viral inhibition is an EC50; but the minimum plasma concentrations which should be maintained in a patient is generally believed to be at least four or five fold higher. […] Lower is better. • 4) Estimating potential exposure in man by measuring parameters such as AUC and rate of clearance by oral and iv dosing in rats. High exposure and low clearance was desired.
The rat model is an initial model used to assess potential for exposure in man.

[5] = Human immunodeficiency virus 1, HeLa-CD4/CCR5, read-out: EC50 Group from Table 1, Table 2-1, HeLa CD4 CCR5 cells, single-round luciferase reporter virus
[6] = Human immunodeficiency virus 1, HeLa-CD4/CCR5, read-out: EC50 category, HIV-1 single-round reporter virus assay, category 1/2/3 per Table A1 key
[7] = AUC 24 h, oral dosing at 5 mg/kg
[8] = Human immunodeficiency virus 1, HeLa-CD4/CCR5, read-out: EC50 Group from Table 1, Table 4, HeLa CD4 CCR5 cells, single-round luciferase reporter virus
[9] = Human immunodeficiency virus 1, HeLa-CD4/CCR5, read-out: EC50 Group from TABLE 1, HeLa CD4 CCR5 cells, single-round infectious luciferase reporter virus

Row | SMILES | HLM predicted human clearance class [1] | EC50 [2, 5] [µM] | EC50 [2, 6] [µM] | CC50 > 100 uM [3] | clearance [4] [L/h/kg] | AUC(0-t) [4, 7] [µg·h/mL] | EC50 [2, 8] [µM] | EC50 [2, 9] [µM] | CL, iv [4] [L/h/kg] | AUC 24 h ([4]; oral dosing at 5 mg/kg) [µg·h/mL] | EC50 ([2]; Human immunodeficiency virus 1, HeLa-CD4/CCR5, 72 h, read-out: EC50 Group from Table 1, HeLa CD4 CCR5 cells, luciferase reporter virus, harvested 72 h after infection) [µM] | AUC(0-t) [4] [µg·h/mL]
1 | COc1cnc(-n2ccc(CO)n2)c2[nH]cc(C(=O)C(=O)N3CCN(C(=O)c4ccccc4)[C@H](C)C3)c12 [Example 236, (R)-1-benzoyl-2-methyl-4-[(4-methoxy-7-(3-hydroxylmethyl-pyrazol-1-yl)-6-azaindol-3-yl)-oxoacetyl]piperazine] | Low (0-0.100) | < 1 | < 0.0002 | Yes | 1.74 ± 0.402 | 0.56 ± 0.25 | – | – | – | – | – | –
2 | COc1cnc(-c2cnc(N)cn2)c2[nH]cc(C(=O)C(=O)N3CCN(C(=O)c4ccccc4)[C@H](C)C3)c12 [Example 266] | Low (0-0.100) | < 1 | < 0.0002 | Yes | 2.24 ± 0.192 | 0.16 ± 0.04 | – | – | – | – | – | –
3 | O=C(C(=O)N1CCN(C(=O)c2ccccc2)CC1)c1c[nH]c2c(-c3ncco3)ccnc12 [Example 204] | Low (0-0.100) | – | 0.0002 to 1 | Yes | 0.6 ± 0.078 | 12 ± 1.4 | < 1 | – | – | – | – | –
4 | Cc1ncn(-c2ncc(F)c3c(C(=O)C(=O)N4CCN(C(=O)c5ccccc5)CC4)c[nH]c23)n1 [Example 306] | Low (0-0.100) | – | < 0.0002 | – | 0.0234 ± 0.0042 | 160 ± 11 | – | < 1 | – | – | – | –
5 | COc1cnc(-c2cnccn2)c2[nH]cc(C(=O)C(=O)N3CCN(C(=O)c4ccccn4)CC3)c12 [Example 102, 1-picolinoyl-4-[(4-methoxy-7-(pyrazin-2-yl)-6-azaindol-3-yl)-oxoacetyl]piperazine] | Low (0-0.100) | – | 0.0002 to 1 | Yes | 0.72 ± 0.33 | 6.9 ± 1.3 | – | < 1 | – | – | – | –
6 | COc1cnc(-n2ccc(C)n2)c2[nH]cc(C(=O)C(=O)N3CCN(C(=O)c4ccccc4)CC3)c12 [Example 190, 1-benzoyl-4-[(4-methoxy-7-(3-methyl-pyrazol-1-yl)-6-azaindol-3-yl)-oxoacetyl]piperazine] | Low (0-0.100) | – | < 0.0002 | Yes | 0.222 ± 0.06 | 7.4 ± 3.4 | – | < 1 | – | – | – | –
7 | COc1cnc(-n2ccnc2)c2[nH]cc(C(=O)C(=O)N3CCN(C(=O)c4ccccc4)CC3)c12 [Example 193, 1-benzoyl-4-[(4-methoxy-7-(1-imidazolyl)-6-azaindol-3-yl)-oxoacetyl]piperazine] | Low (0-0.100) | – | < 0.0002 | No | 0.27 ± 0.024 | 14 ± 8 | – | < 1 | – | – | – | –
8 | O=C(C(=O)N1CCN(C(=O)c2ccccc2)CC1)c1c[nH]c2c(-c3cnco3)ncc(F)c12 [Example 145] | – | – | < 0.0002 | – | – | 12 ± 3.8 | – | < 1 | 0.084 ± 0.0174 | – | – | –
9 | COc1cnc(-n2cncn2)c2[nH]cc(C(=O)C(=O)N3CCN(C(=O)c4ccccc4)[C@H](C)C3)c12 [Example 245, (R)-1-benzoyl-2-methyl-4-[(4-methoxy-7-(1,2,4-triazol-1-yl)-6-azaindol-3-yl)-oxoacetyl]piperazine] | Low (0-0.100) | < 1 | < 0.0002 | Yes | 0.336 ± 0.108 | 12.1 ± 1.3 | – | – | – | – | – | –
10 | COc1ncc(-c2nccc3c(C(=O)C(=O)N4CCN(C(=O)c5ccccc5)C[C@H]4C)c[nH]c23)c(OC)n1 [Example 12, 1-benzoyl-3-®-methyl-4-[(7-(2,4-dimethoxy-pyrimidin-5-yl)-6-azaindol-3-yl)-oxoacetyl]piperazine] | – | – | – | – | – | – | – | – | 0.714 ± 0.108 | 4.7 ± 1.1 | – | –
11 | O=C(C(=O)N1CCN(C(=O)c2ccccc2)CC1)c1c[nH]c2c(-n3ccnn3)ncc(F)c12 [Example 216] | Low (0-0.100) | – | < 0.0002 | – | – | 32 ± 12 | – | < 1 | – | – | – | –
12 | O=C(C(=O)N1CCN(C(=O)c2ccccc2)CC1)c1c[nH]c2c(-n3nccn3)ccnc12 [Example 205, 1-(4-benzoyl-piperazin-1-yl)-2-(7-[1,2,3]triazol-2-yl-1H-pyrrolo[3,2-b]pyridin-3-yl)-ethane-1,2-dione] | Low (0-0.100) | – | 0.0002 to 1 | Yes | 0.324 ± 0.024 | 9.6 ± 1.2 | < 1 | – | – | – | – | –
13 | C[C@@H]1CN(C(=O)C(=O)c2c[nH]c3c(-n4nccn4)ccnc23)CCN1C(=O)c1ccccc1 [Example 355] | Low (0-0.100) | – | 0.0002 to 1 | Yes | 0.834 ± 0.318 | 3.3 ± 0.77 | – | – | – | – | < 1 | –
14 | Cc1ccc(-c2nccc3c(C(=O)C(=O)N4CCN(C(=O)c5ccccc5)C[C@H]4C)c[nH]c23)cc1N [Example 3, 1-benzoyl-3-®-methyl-4-[(7-(3-amino-4-methylphenyl)-6-azaindol-3-yl)-oxoacetyl] piperazine] | – | – | – | – | – | – | – | – | 0.078 ± 0.24 | 6.3 ± 2.7 | – | –
15 | CCc1ncn(-c2ncc(OC)c3c(C(=O)C(=O)N4CCN(C(=O)c5ccccc5)[C@H](C)C4)c[nH]c23)n1 [Example 322] | Low (0-0.100) | < 1 | < 0.0002 | Yes | 0.108 ± 0.024 | 82 ± 23 | – | – | – | – | – | –
16 | COc1cnc(-n2cnc(C)n2)c2[nH]cc(C(=O)C(=O)N3CCN(C(=O)c4ccccc4)CC3)c12 [Example 316] | – | – | < 0.0002 | – | – | – | – | < 1 | – | – | – | 52 ± 12
